Data taken from patent US20200246352A1, “Vanadyl and vanadate for use in reducing stress-induced metabolic derangement” (CFM Pharma Holding B.V., priority 2017, published 2020).
“And” between values parts separate entries of the source, which are not always exact repeats. Equal values may be shown once. Read-outs that look alike come from different tables or passages of the source.

Test system: healthy male Wistar rats
Conditions: for Effect of adrenaline infusion on blood glucose level: 0.1, 0.3 or 1 μg/kg/min infusion for 180 min; for Blood glucose levels, individual animals in duplicate: medium adrenaline dose (MA) 0.3 μg/kg/min
Experimental: In the first part of the study (Table 1, Table 3, series 1), thirteen (13) healthy male Wistar rats were anesthetized by intraperitoneal (ip.) injection of thiopental (Tiobarbital 0.5 g, Braun Medical SA) after 12 hours of fasting.

`CNCC(O)c1ccc(O)c(O)c1` (stereo not shown) [adrenaline] was tested, and the “Effect of adrenaline infusion on blood glucose level” value was “inflicts hyperglycemic state in an adrenaline dose dependent manner”, the “Effect of adrenaline infusion on blood glucose level” value (listed as Adrenaline) was “dose-dependent continuous increase in blood glucose level” and the “Blood glucose level, mean” value (high dose 1 μg/kg/min infusion, 0 min (before infusion)) was 5.39 mM/l. For the same molecule, the “Blood glucose level, mean” value (high dose 1 μg/kg/min infusion, 15 min) was 5.46 mM/l, the “Blood glucose level, mean” value (high dose 1 μg/kg/min infusion, 30 min) was 5.69 mM/l and the “Blood glucose level, mean” value (high dose 1 μg/kg/min infusion, 45 min) was 6.62 mM/l. For the same molecule, the “Blood glucose level, mean” value (high dose 1 μg/kg/min infusion, 60 min) was 7.93 mM/l, the “Blood glucose level, mean” value (high dose 1 μg/kg/min infusion, 90 min) was 10.95 mM/l and the “Blood glucose level, mean” value (high dose 1 μg/kg/min infusion, 120 min) was 13.25 mM/l. For the same molecule, the “Blood glucose level, mean” value (high dose 1 μg/kg/min infusion, 150 min) was 13.65 mM/l, the “Blood glucose level, mean” value (high dose 1 μg/kg/min infusion, 180 min) was 13.81 mM/l and the “Time of peak blood glucose level after start of infusion” value (highest dose 1 μg/kg/min) was “around 120 min”. The “Blood glucose level, mean” value (low dose 0.1 μg/kg/min infusion, 0 min (before infusion)) was 5.09 mM/l, the “Blood glucose level, mean” value (low dose 0.1 μg/kg/min infusion, 15 min) was 5.31 mM/l and the “Blood glucose level, mean” value (low dose 0.1 μg/kg/min infusion, 30 min) was 5.26 mM/l. The “Blood glucose level, mean” value (low dose 0.1 μg/kg/min infusion, 45 min) was 5.18 mM/l, the “Blood glucose level, mean” value (low dose 0.1 μg/kg/min infusion, 60 min) was 5.70 mM/l and the “Blood glucose level, mean” value (low dose 0.1 μg/kg/min infusion, 90 min) was 6.16 mM/l. For the same molecule, the “Blood glucose level, mean” value (low dose 0.1 μg/kg/min infusion, 120 min) was 7.09 mM/l, the “Blood glucose level, mean” value (low dose 0.1 μg/kg/min infusion, 150 min) was 7.89 mM/l and the “Blood glucose level, mean” value (low dose 0.1 μg/kg/min infusion, 180 min) was 8.34 mM/l. The “Blood glucose levels, individual animals in duplicate” value (shortened to “Blood glucose levels”) (30 min) was 6.0 mM/l (2×) and 5.9 mM/l, the “Blood glucose levels” value (45 min) was 4.7 mM/l and 4.3 mM/l and 5.7 mM/l and the “Blood glucose levels” value (60 min) was 6.4 mM/l (2×) and 6.7 mM/l. For the same molecule, the “Blood glucose levels” value (90 min) was 6.0 mM/l and 7.4 mM/l and 9.5 mM/l, the “Blood glucose levels” value (120 min) was 8.7 mM/l and 8.9 mM/l and 11.7 mM/l and the “Blood glucose levels” value (150 min) was 7.5 mM/l and 7.1 mM/l and 12.8 mM/l. The “Blood glucose levels” value (180 min) was 5.3 mM/l (2×) and 13.2 mM/l, the “Blood glucose level, mean” value (medium dose 0.3 μg/kg/min infusion, 0 min (before infusion)) was 5.53 mM/l and the “Blood glucose level, mean” value (medium dose 0.3 μg/kg/min infusion, 15 min) was 6.45 mM/l. For the same molecule, the “Blood glucose level, mean” value (medium dose 0.3 μg/kg/min infusion, 30 min) was 6.36 mM/l, the “Blood glucose level, mean” value (medium dose 0.3 μg/kg/min infusion, 45 min) was 6.34 mM/l and the “Blood glucose level, mean” value (medium dose 0.3 μg/kg/min infusion, 60 min) was 7.85 mM/l. The “Blood glucose level, mean” value (medium dose 0.3 μg/kg/min infusion, 90 min) was 10.15 mM/l, the “Blood glucose level, mean” value (medium dose 0.3 μg/kg/min infusion, 120 min) was 11.36 mM/l and the “Blood glucose level, mean” value (medium dose 0.3 μg/kg/min infusion, 150 min) was 10.96 mM/l. For the same molecule, the “Blood glucose level, mean” value (medium dose 0.3 μg/kg/min infusion, 180 min) was 10.19 mM/l.
